Columns and labels:
EGFR = target: T1, EGFR (Homo sapiens, UniProt P00533); assay: EGFR ELISA assay (in vitro kinase activity, EGFR captured from A431 cell lysate); type: biochemical; design: concentration or dose not given beside the values
T1 construct: Add 7 ug A431 cell lysate per well (EGFR source); endogenous in cells; host or cells: A431
Method in brief: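 EGFR from A431 lysate was captured on plates coated with anti-EGFR antibody. Compounds were added 30 min before a 5 min phosphorylation with 3 µM ATP/5 mM MnCl2, which was stopped with 20 mM EDTA. Phosphotyrosine was detected with rabbit anti-phosphotyrosine, then a peroxidase-conjugated secondary and ABTS/H2O2, read at 410 nm.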

MET = MET biochemical kinase assay; design: species or system human; concentration or dose not given beside the values
Method in brief: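 MET from cell lysates captured on ELISA plates via rabbit anti-MET cytoplasmic-domain antibody; compounds added and kinase reaction run in ATP and divalent-metal buffer. Receptor phosphotyrosine detected with HRP-conjugated anti-phosphotyrosine antibody and TMB colorimetry.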

T1 sequence (P00533 25-1210): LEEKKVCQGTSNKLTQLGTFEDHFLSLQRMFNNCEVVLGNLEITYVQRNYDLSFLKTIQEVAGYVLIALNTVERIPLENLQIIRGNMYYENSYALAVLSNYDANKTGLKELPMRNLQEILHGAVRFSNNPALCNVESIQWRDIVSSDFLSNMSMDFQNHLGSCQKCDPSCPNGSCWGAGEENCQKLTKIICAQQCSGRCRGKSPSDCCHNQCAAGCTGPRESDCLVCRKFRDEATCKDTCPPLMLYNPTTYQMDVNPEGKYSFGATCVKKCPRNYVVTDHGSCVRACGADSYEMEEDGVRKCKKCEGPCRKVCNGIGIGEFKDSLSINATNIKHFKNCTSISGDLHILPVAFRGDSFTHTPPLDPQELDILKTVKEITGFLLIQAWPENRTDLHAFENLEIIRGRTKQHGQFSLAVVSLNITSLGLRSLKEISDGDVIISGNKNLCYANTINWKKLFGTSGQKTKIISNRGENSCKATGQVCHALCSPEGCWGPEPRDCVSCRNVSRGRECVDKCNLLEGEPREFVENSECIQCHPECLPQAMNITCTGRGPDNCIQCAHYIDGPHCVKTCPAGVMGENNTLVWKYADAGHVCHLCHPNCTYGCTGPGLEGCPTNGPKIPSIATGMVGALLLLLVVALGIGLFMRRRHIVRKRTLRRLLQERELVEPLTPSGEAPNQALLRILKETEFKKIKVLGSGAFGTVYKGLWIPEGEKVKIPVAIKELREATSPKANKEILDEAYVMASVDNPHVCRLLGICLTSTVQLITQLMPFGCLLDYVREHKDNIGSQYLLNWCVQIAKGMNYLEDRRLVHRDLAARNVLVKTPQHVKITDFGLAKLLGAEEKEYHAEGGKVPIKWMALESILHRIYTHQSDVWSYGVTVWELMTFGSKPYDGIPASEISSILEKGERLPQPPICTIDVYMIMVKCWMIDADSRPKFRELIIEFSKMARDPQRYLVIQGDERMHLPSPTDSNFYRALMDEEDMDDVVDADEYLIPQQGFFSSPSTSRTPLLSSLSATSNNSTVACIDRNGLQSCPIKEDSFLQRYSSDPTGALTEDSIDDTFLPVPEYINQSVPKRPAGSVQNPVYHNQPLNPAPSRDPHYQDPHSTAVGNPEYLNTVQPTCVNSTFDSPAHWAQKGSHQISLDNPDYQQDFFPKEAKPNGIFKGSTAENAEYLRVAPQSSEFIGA

Structure (SMILES)	Biochem EGFR %Inhibition (EGFR)	Met Kinase % Inhibition (MET)
COc1cccc(O)c1C=C1C(=O)Nc2c(Br)cc(Br)cc21 [10717/A10]	8.1%	71.6%
CNS(=O)(=O)c1ccc2c(c1)C(=Cc1c(C)[nH]c(C(=O)OC)c1C(=O)OC)C(=O)N2 [10718/D07]	5.6%	26.1%
CNS(=O)(=O)c1ccc2c(c1)C(=Cc1ccc(Cl)c([N+](=O)[O-])c1)C(=O)N2 [10718/D08]	3.0%	2.3%
CNS(=O)(=O)c1ccc2c(c1)C(=Cc1ccc(O)c(C)c1O)C(=O)N2 [10718/D09]	6.0%	9.9%
CNS(=O)(=O)c1ccc2c(c1)C(=Cc1ccco1)C(=O)N2 [10718/D10]	12.3%	55.3%
CNS(=O)(=O)c1ccc2c(c1)C(=Cc1ccc([N+](=O)[O-])o1)C(=O)N2 [10718/D11]	5.4%	11.3%
CCOC(=O)c1c(C)[nH]c(C=C2C(=O)Nc3ccc(S(=O)(=O)Nc4ccc(C(F)(F)F)cc4)cc32)c1C [10718/E02]	1.0%	46.3%
COc1cc(Br)c(O)c(C=C2C(=O)Nc3ccc(S(=O)(=O)Nc4ccc(C(F)(F)F)cc4)cc32)c1 [10718/E03]	50.4%	95.3%
CNS(=O)(=O)c1ccc2c(c1)C(=Cc1cc(I)c(OC)c(C(C)(C)C)c1)C(=O)N2 [10732/D11]	-13.4%	48.6%
O=C1Nc2ccc(S(=O)(=O)Nc3ccc(C(F)(F)F)cc3)cc2C1=CC(c1cccs1)C(F)(F)F (centres unmarked) [10732/E02]	0.8%	33.3%
COc1c(C(C)C)cc(C=C2C(=O)Nc3ccc(S(=O)(=O)Nc4ccc(C(F)(F)F)cc4)cc32)cc1C(C)C [10732/E03]	-1.6%	3.9%
CC(C)c1cc(C=C2C(=O)Nc3ccc(S(=O)(=O)Nc4ccc(C(F)(F)F)cc4)cc32)cc(C(C)C)c1Oc1ccccc1 [10732/E04]	-10.6%	8.2%
COc1ccc(C=C2C(=O)Nc3ccc(S(=O)(=O)Nc4ccc(C(F)(F)F)cc4)cc32)cc1C(C)(C)C [10732/E05]	-17.0%	2.2%
CC(C)(C)c1cc(C=C2C(=O)Nc3ccc(S(=O)(=O)Nc4ccc(C(F)(F)F)cc4)cc32)ccc1OCc1ccccc1 [10732/E06]	-11.0%	-2.1%
COc1c(Br)cc(C=C2C(=O)Nc3ccc(S(=O)(=O)Nc4ccc(C(F)(F)F)cc4)cc32)cc1C(C)(C)C [10732/E07]	-8.5%	15.2%
CC(C)(C)c1cc(C=C2C(=O)Nc3ccc(S(=O)(=O)Nc4ccc(C(F)(F)F)cc4)cc32)cc(Br)c1OCc1ccccc1 [10732/E08]	-21.7%	29.4%
COc1c(Cl)cc(C=C2C(=O)Nc3ccc(S(=O)(=O)Nc4ccc(C(F)(F)F)cc4)cc32)cc1C(C)(C)C [10732/E09]	-7.2%	18.1%
CC(C)(C)c1cc(C=C2C(=O)Nc3ccc(S(=O)(=O)Nc4ccc(C(F)(F)F)cc4)cc32)cc(Cl)c1OCc1ccccc1 [10732/E10]	-3.3%	1.6%
COc1c(I)cc(C=C2C(=O)Nc3ccc(S(=O)(=O)Nc4ccc(C(F)(F)F)cc4)cc32)cc1C(C)(C)C [10732/E11]	-32.2%	41.4%
O=C1Nc2ccc(S(=O)(=O)N3CCOCC3)cc2C1=CC(c1cccs1)C(F)(F)F (centres unmarked) [10732/F02]	23.1%	55.6%

Structure (SMILES)	Biochem EGFR %Inhibition (EGFR)	Met Kinase % Inhibition (MET)
COc1c(C(C)C)cc(C=C2C(=O)Nc3ccc(S(=O)(=O)N4CCOCC4)cc32)cc1C(C)C [10732/F03]	54.1%	68.6%
CC(C)c1cc(C=C2C(=O)Nc3ccc(S(=O)(=O)N4CCOCC4)cc32)cc(C(C)C)c1Oc1ccccc1 [10732/F04]	-0.1%	57.2%
COc1ccc(C=C2C(=O)Nc3ccc(S(=O)(=O)N4CCOCC4)cc32)cc1C(C)(C)C [10732/F05]	-30.7%	58.9%
CC(C)(C)c1cc(C=C2C(=O)Nc3ccc(S(=O)(=O)N4CCOCC4)cc32)ccc1OCc1ccccc1 [10732/F06]	-8.0%	45.7%
COc1c(Br)cc(C=C2C(=O)Nc3ccc(S(=O)(=O)N4CCOCC4)cc32)cc1C(C)(C)C [10732/F07]	-12.5%	65.5%
CC(C)(C)c1cc(C=C2C(=O)Nc3ccc(S(=O)(=O)N4CCOCC4)cc32)cc(Br)c1OCc1ccccc1 [10732/F08]	-11.9%	76.6%
COc1c(Cl)cc(C=C2C(=O)Nc3ccc(S(=O)(=O)N4CCOCC4)cc32)cc1C(C)(C)C [10732/F09]	-13.4%	79.7%
CC(C)(C)c1cc(C=C2C(=O)Nc3ccc(S(=O)(=O)N4CCOCC4)cc32)cc(Cl)c1OCc1ccccc1 [10732/F10]	0.8%	65.1%
COc1c(I)cc(C=C2C(=O)Nc3ccc(S(=O)(=O)N4CCOCC4)cc32)cc1C(C)(C)C [10732/F11]	-21.5%	75.2%
O=C1Nc2ccc(CCCl)cc2C1=CC(c1cccs1)C(F)(F)F (centres unmarked) [10732/G02]	-0.7%	39.5%
COc1c(C(C)C)cc(C=C2C(=O)Nc3ccc(CCCl)cc32)cc1C(C)C [10732/G03]	-20.0%	38.1%
CC(C)c1cc(C=C2C(=O)Nc3ccc(CCCl)cc32)cc(C(C)C)c1Oc1ccccc1 [10732/G04]	8.0%	24.9%
COc1ccc(C=C2C(=O)Nc3ccc(CCCl)cc32)cc1C(C)(C)C [10732/G05]	3.8%	15.2%
CC(C)(C)c1cc(C=C2C(=O)Nc3ccc(CCCl)cc32)ccc1OCc1ccccc1 [10732/G06]	-12.1%	16.2%
COc1c(Br)cc(C=C2C(=O)Nc3ccc(CCCl)cc32)cc1C(C)(C)C [10732/G07]	-21.9%	23.9%
CC(C)(C)c1cc(C=C2C(=O)Nc3ccc(CCCl)cc32)cc(Br)c1OCc1ccccc1 [10732/G08]	-20.4%	44.7%
COc1c(Cl)cc(C=C2C(=O)Nc3ccc(CCCl)cc32)cc1C(C)(C)C [10732/G09]	-34.8%	33.9%
CC(C)(C)c1cc(C=C2C(=O)Nc3ccc(CCCl)cc32)cc(Cl)c1OCc1ccccc1 [10732/G10]	-38.2%	45.7%
COc1c(I)cc(C=C2C(=O)Nc3ccc(CCCl)cc32)cc1C(C)(C)C [10732/G11]	-33.7%	63.0%
CC(C)(C)c1cc(C=C2C(=O)Nc3c(Br)cc(Br)cc32)cc(I)c1OCc1ccccc1 [10733/A02]	25.9%	74.6%
